Test results reported in the supplement of paper PMC6045584.
± gives the standard deviation of the averaged measurements.

Legend:
DOXORUBICIN = compound: COc1cccc2c1C(=O)c1c(O)c3c(c(O)c1C2=O)C[C@@](O)(C(=O)CO)C[C@@H]3O[C@H]1C[C@H](N)[C@H](O)[C@H](C)O1 [DOXORUBICIN]; test: surviving fraction relative to DMSO-only wells; higher = less growth inhibition; conditions: exposure time: 5 days
In short: (§1)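 A line counted only if its three screens reached replicate Pearson r >0.7 and median Z' >0.3. Tumour cells in log phase were seeded at 250–500 per well in 384-well plates and, after 24 hours, kept in continuous contact with inhibitors at 0.5, 1, 5, 10, 50, 100, 500 and 1000 nM for five days. Surviving fraction was taken from CellTiter-Glo luminescence relative to the median of DMSO-only wells.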

VISMODEGIB = compound: CS(=O)(=O)c1ccc(C(=O)Nc2ccc(Cl)c(-c3ccccn3)c2)c(Cl)c1 [VISMODEGIB]; test: as above; conditions: exposure time: 5 days
In short: as §1

Row | Test System | surviving fraction (DOXORUBICIN; 0.5 nM) | surviving fraction (DOXORUBICIN; 1 nM) | surviving fraction (DOXORUBICIN; 5 nM) | surviving fraction (DOXORUBICIN; 10 nM) | surviving fraction (DOXORUBICIN; 50 nM) | surviving fraction (DOXORUBICIN; 100 nM) | surviving fraction (DOXORUBICIN; 500 nM) | surviving fraction (DOXORUBICIN; 1000 nM) | surviving fraction (VISMODEGIB; 0.5 nM) | surviving fraction (VISMODEGIB; 1 nM) | surviving fraction (VISMODEGIB; 5 nM) | surviving fraction (VISMODEGIB; 10 nM) | surviving fraction (VISMODEGIB; 50 nM) | surviving fraction (VISMODEGIB; 100 nM) | surviving fraction (VISMODEGIB; 500 nM) | surviving fraction (VISMODEGIB; 1000 nM)
1 | SCC36 HEADNECK | 0.694 ± 0.073 | 1.13 ± 0.046 | 0.903 ± 0.001 | 0.795 ± 0.087 | 0.426 ± 0.024 | 0.5 ± 0.069 | 0.035 ± 0.0027 | 0.034 ± 0.002 | 0.88 ± 0.031 | 0.979 ± 0.033 | 1.07 ± 0.048 | 1.05 ± 0.051 | 0.739 ± 0.094 | 0.779 ± 0.085 | 0.731 ± 0.071 | 0.721 ± 0.076
2 | SCC47 HEADNECK | 1.021 ± 0.0081 | 1.03 ± 0.11 | 1.09 ± 0.09 | 0.966 ± 0.051 | 0.573 ± 0.027 | 0.597 ± 0.039 | 0.09 ± 0.0027 | 0.0307 ± 0.0015 | 0.968 ± 0.064 | 1 ± 0.07 | 0.992 ± 0.044 | 1.04 ± 0.07 | 0.892 ± 0.026 | 0.963 ± 0.026 | 0.9167 ± 0.004 | 0.954 ± 0.016
3 | SCC90 HEADNECK | 0.967 ± 0.034 | 0.956 ± 0.046 | 0.954 ± 0.029 | 1.06 ± 0.1 | 0.711 ± 0.12 | 0.571 ± 0.072 | 0.11 ± 0.033 | 0.0687 ± 0.0095 | 0.824 ± 0.014 | 0.945 ± 0.051 | 0.908 ± 0.092 | 1.01 ± 0.023 | 0.848 ± 0.026 | 0.84 ± 0.053 | 0.841 ± 0.015 | 0.881 ± 0.029
4 | SG27 HEADNECK | 0.988 ± 0.057 | 0.967 ± 0.037 | 1.09 ± 0.094 | 1.04 ± 0.059 | 0.949 ± 0.038 | 0.867 ± 0.081 | 0.097 ± 0.014 | 0.0447 ± 0.019 | 0.942 ± 0.013 | 0.974 ± 0.13 | 1 ± 0.062 | 0.962 ± 0.071 | 0.933 ± 0.039 | 0.961 ± 0.052 | 0.9 ± 0.052 | 1.03 ± 0.13
5 | SG28 HEADNECK | 1.11 ± 0.12 | 1.11 ± 0.083 | 0.976 ± 0.081 | 1.03 ± 0.011 | 0.851 ± 0.13 | 0.609 ± 0.014 | 0.0457 ± 0.0098 | 0.038 ± 0.0036 | 1 ± 0.033 | 0.995 ± 0.042 | 0.979 ± 0.096 | 0.921 ± 0.096 | 0.801 ± 0.043 | 0.831 ± 0.019 | 0.837 ± 0.076 | 0.929 ± 0.099
6 | SG31 HEADNECK | 1.1 ± 0.095 | 1.03 ± 0.035 | 0.818 ± 0.035 | 0.717 ± 0.11 | 0.556 ± 0.03 | 0.495 ± 0.037 | 0.0787 ± 0.02 | 0.0363 ± 0.01 | 0.965 ± 0.17 | 1.01 ± 0.2 | 0.946 ± 0.088 | 1.11 ± 0.22 | 0.783 ± 0.031 | 0.94 ± 0.054 | 0.834 ± 0.049 | 0.826 ± 0.091
7 | SG32 HEADNECK | 1.19 ± 0.12 | 1.07 ± 0.27 | 0.828 ± 0.14 | 0.563 ± 0.099 | 0.414 ± 0.04 | 0.194 ± 0.019 | 0.04 ± 0.017 | 0.0313 ± 0.0081 | 1.01 ± 0.031 | 1.08 ± 0.11 | 1.07 ± 0.17 | 1.58 ± 0.69 | 0.857 ± 0.06 | 1.08 ± 0.26 | 0.844 ± 0.14 | 0.873 ± 0.075
8 | SG43 HEADNECK | 0.854 ± 0.15 | 0.776 ± 0.14 | 0.802 ± 0.076 | 0.675 ± 0.16 | 0.453 ± 0.056 | 0.322 ± 0.067 | 0.0633 ± 0.027 | 0.048 ± 0.024 | 0.961 ± 0.18 | 1.15 ± 0.63 | 0.861 ± 0.075 | 0.972 ± 0.32 | 1.18 ± 0.35 | 0.9673 ± 0.0015 | 1.17 ± 0.3 | 1.18 ± 0.14
